# Experimental data as given in patent publication US20130109693A1, “DERIVATIVES OF PYRIDO [3,2-D] PYRIMIDINE, METHODS FOR PREPARATION THEREOF AND THERAPEUTIC USES THEREOF” (UNIVERSITE D'ORLEANS, priority 2010, published 2013).
row,Compound,melting point [°C]
1,"Clc1cnc2c(-c3ccccc3)nc(-c3ccccc3)nc2c1 [Compound 4, 7-Chloro-2,4-diphenyl-pyrido[3,2-d]pyrimidine]",120 to 121
2,"COc1cccc(-c2nc(-c3ccccc3)c3ncc(Cl)cc3n2)c1 [Compound 6, 7-Chloro-2-(3-methoxyphenyl)-4-phenyl-pyrido[3,2-d]pyrimidine]",112 to 113
3,"COc1ccccc1-c1nc(-c2ccccc2)c2ncc(Cl)cc2n1 [Compound 7, 7-Chloro-2-(2-methoxyphenyl)-4-phenyl-pyrido[3,2-d]pyrimidine]",116 to 117
4,"COc1ccc(-c2cnc3c(-c4ccccc4)nc(-c4cccc(OC)c4)nc3c2)cc1 [Compound 8, 2-(3-Methoxyphenyl)-7-(4-methoxyphenyl)-4-phenyl-pyrido[3,2-d]-pyrimidine]",147 to 148
5,"COc1cccc(-c2nc(-c3ccccc3)c3ncc(-c4ccc(C(C)=O)cc4)cc3n2)c1 [Compound 9, 7-(4-Acetylphenyl)-2-(3-methoxyphenyl)-4-phenyl-pyrido[3,2-d]pyrimidine]",133 to 134
6,"COc1cccc(-c2nc(-c3ccccc3)c3ncc(-c4ccco4)cc3n2)c1 [Compound 12, 7-(2-Furyl)-2-(3-methoxyphenyl)-4-phenyl-pyrido[3,2-d]pyrimidine]",131 to 132
7,"COc1cccc(-c2nc(-c3ccccc3)c3ncc(-c4cccnc4)cc3n2)c1 [Compound 13, 2-(3-Methoxyphenyl)-4-phenyl-7-(3-pyridyl)-pyrido[3,2-d]pyrimidine]",134 to 135
8,"COc1cccc(-c2nc(-c3ccccc3)c3ncc(-c4csc5ccccc45)cc3n2)c1 [Compound 14, 7-(3-Benzothienyl)-2-(3-methoxyphenyl)-4-phenyl-pyrido[3,2-d]pyrimidine]",112 to 113
9,"COc1cccc(-c2nc(-c3ccccc3)c3ncc(-c4cccs4)cc3n2)c1 [Compound 15, 2-(3-Methoxyphenyl)-4-phenyl-7-(2-thienyl)-pyrido[3,2-d]pyrimidine]",140 to 141
10,"Oc1cccc(-c2ncc3ncc(Cl)cc3n2)c1 [Compound 18, 7-Chloro-2-(3-hydroxyphenyl)-pyrido[3,2-d]pyrimidine]",252 to 253
11,"Oc1ccccc1-c1ncc2ncc(Cl)cc2n1 [Compound 19, 7-Chloro-2-(2-hydroxyphenyl)-pyrido[3,2-d]pyrimidine]",211 to 212
12,"Oc1ccc(-c2ncc3ncc(-c4ccc(S)cc4)cc3n2)cc1 [Compound 27, 2-(4-Hydroxyphenyl)-7-(4-mercaptophenyl)-pyrido[3,2-d]pyrimidine]",222 to 223
13,"Oc1ccc(-c2cnc3cnc(-c4ccccc4O)nc3c2)cc1 [Compound 31, 2-(2-Hydroxyphenyl)-7-(4-hydroxyphenyl)-pyrido[3,2-d]pyrimidine]",> 268
14,"O=Cc1ccc(-c2cnc3cnc(-c4ccc(O)cc4)nc3c2)cc1 [Compound 42, 2-(4-Hydroxyphenyl)-7-(4-formylphenyl)-pyrido[3,2-d]pyrimidine]",> 268
15,"O=Cc1cccc(-c2cnc3cnc(-c4ccc(O)cc4)nc3c2)c1 [Compound 44, 2-(4-Hydroxyphenyl)-7-(3-formylphenyl)-pyrido[3,2-d]pyrimidine]",266
16,"Oc1ccc(-c2ncc3ncc(Nc4ccncc4)cc3n2)cc1 [Compound 55, 2-(4-Hydroxyphenyl)-7-(4-pyridinylamino)-pyrido[3,2-d]pyrimidine]",> 268
17,"Oc1ccc(-c2ncc3ncc(Nc4ccccn4)cc3n2)cc1 [Compound 57, 2-(4-Hydroxyphenyl)-7-(2-pyridinylamino)-pyrido[3,2-d]pyrimidine]",> 268
18,"Oc1ccc(Nc2cnc3cnc(-c4ccc(O)cc4)nc3c2)cc1 [Compound 58, 2-(4-Hydroxyphenyl)-7-(4-hydroxyphenylamino)-pyrido[3,2-d]pyrimidine]",168 to 170
19,"O=C(Nc1cnc2cnc(-c3ccc(O)cc3)nc2c1)c1cccnc1 [Compound 68, N-[2-(4-Hydroxy-phenyl)-pyrido[3,2-d]pyrimidin-7-yl]nicotinamide]",226 to 228
20,"O=C1CCCCN1c1cnc2cnc(-c3ccc(O)cc3)nc2c1 [Compound 69, 1-[2-(4-Hydroxy-phenyl)-pyrido[3,2-d]pyrimidin-7-yl]-piperidin-2-one]",268 to 270
21,"O=C1CNCCN1c1cnc2cnc(-c3ccc(O)cc3)nc2c1 [Compound 70, 1-[2-(4-Hydroxy-phenyl)-pyrido[3,2-d]pyrimidin-7-yl]-piperazin-2-one]",> 268
22,"O=C(Nc1cnc2cnc(-c3ccc(O)cc3)nc2c1)c1ccncc1 [Compound 71, N-[2-(4-Hydroxy-phenyl)-pyrido[3,2-d]pyrimidin-7-yl]isonicotinamide]",230 to 232
23,"O=C1CCCN1c1cnc2cnc(-c3ccc(O)cc3)nc2c1 [Compound 72, 1-[2-(4-Hydroxy-phenyl)-pyrido[3,2-d]pyrimidin-7-yl]-pyrrolidin-2-one]",> 268
24,"OCCNc1nc(NCc2ccccc2)c2ncc(Cl)cc2n1 [Compound 82, 4-Benzylamino-7-chloro-2-(2-hydroxyethylamino)-pyrido[3,2-d]pyrimidine]",106 to 107
25,"OCCNc1nc(NCc2ccccc2)c2ncc(Nc3ncncn3)cc2n1 [Compound 88, 4-Benzylamino-2-(2-hydroxyethylamino)-7-(1,3,5-triazinylamino)-pyrido[3,2-d]pyrimidine]",202 to 203

# Results, then the compound that gave them:
row,melting point [°C],Compound
1,193 to 194,"COc1ccc(-c2nc(-c3ccccc3)c3ncc(Cl)cc3n2)cc1 [Compound 5, 7-Chloro-2-(4-methoxyphenyl)-4-phenyl-pyrido[3,2-d]pyrimidine]"
2,313 to 314,"N#Cc1ccc(-c2cnc3cnc(-c4ccc(O)cc4)nc3c2)cc1 [Compound 28, 2-(4-Hydroxyphenyl)-7-(4-cyanophenyl)-pyrido[3,2-d]pyrimidine]"
3,> 268,"N#Cc1cccc(-c2cnc3cnc(-c4ccc(O)cc4)nc3c2)c1 [Compound 29, 2-(4-Hydroxyphenyl)-7-(3-cyanophenyl)-pyrido[3,2-d]pyrimidine]"
4,> 268,"Oc1ccc(-c2cnc3cnc(-c4cccc(O)c4)nc3c2)cc1 [Compound 30, 2-(3-Hydroxyphenyl)-7-(4-hydroxyphenyl)-pyrido[3,2-d]pyrimidine]"
5,> 268,"Oc1ccc(-c2ncc3ncc(-c4ccoc4)cc3n2)cc1 [Compound 36, 2-(4-Hydroxyphenyl)-7-(3-furyl)-pyrido[3,2-d]pyrimidine]"
6,207 to 208,"COc1cc(O)ccc1-c1cnc2cnc(-c3ccc(O)cc3)nc2c1 [Compound 43, 2-(4-hydroxyphenyl)-7-(2-methoxy-4-hydroxyphenyl)-pyrido[3,2-d]pyrimidine]"
7,232,"OCc1cccc(-c2cnc3cnc(-c4ccc(O)cc4)nc3c2)c1 [Compound 45, 2-(4-Hydroxyphenyl)-7-(3-hydroxymethylphenyl)-pyrido[3,2-d]pyrimidine]"
8,> 268,"COCOc1ccc(-c2ncc3ncc(Cl)cc3n2)cc1 [Compound 64, 7-Chloro-2-(4-methoxymethoxy-phenyl)-pyrido[3,2-d]pyrimidine]"
9,232,"COCOc1ccc(-c2ncc3ncc(NC(=O)c4cccnc4)cc3n2)cc1 [Compound 65, N-[2-(4-Methoxymethoxy-phenyl)-pyrido[3,2-d]pyrimidin-7-yl]-nicotinamide]"
10,202 to 204,"COCOc1ccc(-c2ncc3ncc(N4CCCCC4=O)cc3n2)cc1 [Compound 66, 1-[2-(4-Methoxymethoxy-phenyl)-pyrido[3,2-d]pyrimidin-7-yl]-piperidin-2-one]"
11,200 to 202,"COCOc1ccc(-c2ncc3ncc(N4CCNCC4=O)cc3n2)cc1 [Compound 67, 1-[2-(4-Methoxymethoxy-phenyl)-pyrido[3,2-d]pyrimidin-7-yl]-piperazin-2-one]"
12,> 268,"COCOc1ccc(-c2ncc3ccc(-c4csc(CN5CCCCC5)c4)nc3n2)cc1 [Compound 75, 2-(4-Methoxymethoxy-phenyl)-7-(5-piperidin-1-ylmethyl-thiophen-3-yl)-pyrido[2,3-d]pyrimidine]"
13,> 268,"COCOc1ccc(-c2ncc3ccc(-c4csc(CN5CCOCC5)c4)nc3n2)cc1 [Compound 76, 2-(4-Methoxymethoxy-phenyl)-7-(5-morpholin-4-ylmethyl-thiophen-3-yl)-pyrido[2,3-d]pyrimidine]"
14,> 268,"COCOc1ccc(-c2ncc3ccc(-c4csc(CN5CCN(C)CC5)c4)nc3n2)cc1 [Compound 77, 2-(4-Methoxymethoxy-phenyl)-7-[5-(4-methyl-piperazin-1-ylmethyl)-thiophen-3-yl]-pyrido[2,3-d]pyrimidine]"
15,> 268,"Oc1ccc(-c2ncc3ccc(-c4csc(CN5CCCCC5)c4)nc3n2)cc1 [Compound 78, 4-[7-(5-Piperidin-1-ylmethyl-thiophen-3-yl)-pyrido[2,3-d]pyrimidin-2-yl]-phenol]"
16,> 268,"Oc1ccc(-c2ncc3ccc(-c4csc(CN5CCOCC5)c4)nc3n2)cc1 [Compound 79, 4-[7-(5-Morpholin-4-ylmethyl-thiophen-3-yl)-pyrido[2,3-d]pyrimidin-2-yl]-phenol]"
